Columns and labels:
[1] = tested on: SNP tumors; assay: Intratumoral localization in SNP tumors; type: in vivo, NOD/ShiJic-scidJcl mice; conditions: 10 mg/kg i.v.
Experimental: Six-week-old female NOD/ShiJic-scidJcl mice (CLEA Japan, Tokyo, Japan) were maintained in isolators under specific pathogen-free conditions. All SCID mice were housed and handled under clean conditions using a Jic rack (Jic Co., Kanagawa, Japan), sterilized water, cages, beddings, and food (CL-2; CLEA Japan, Tokyo, Japan). Food and water were given ad libitum. SNP cells were inoculated subcutaneously in the shaved lower dorsum of mice at a density of 1 × 10^6 cells in 0.1 mL phosphate buffered salts (Nacalai Tesque Inc., Kyoto, Japan) per mouse using a 26-gauge syringe. The treatments were initiated when the average tumor volume reached about 100 mm^3 in tumor model. The use of animals and the procedures employed in this study were approved by the Animal Research Committee of Tottori University (project number: 15-T-48).
To determine the intratumoral localization of G-Ce6, tumors were excised either 5 min or 3 h after G-Ce6 (10 mg/kg, i.v.) administration. Samples were immediately mounted in Tissue-Tek® O.C.T. compound (Sakura® Finetek., Tokyo, Japan) and snap-frozen in dry ice with acetone. Cryostat cross sections (10-μm slices) were taken from the center of each tumor. Each section was examined using the all-in-one fluorescence microscope with a filter (excitation, 405 nm; emission, 640 nm).

[2] = tested on: SNP cells; assay: Analysis of apoptosis (Muse Annexin V and Dead Cell Assay kit); type: cell-based, canine; conditions: 8 μg/mL; 1, 5, or 15 J/cm^2; 4 h after PDT; p < 0.01
Experimental: SNP cells were seeded at a density of 5 × 10^4 cells/well in 35-mm petri dishes containing 2 mL culture medium. Following 24 h of incubation, the cells were divided into the following groups: control (no treatment); laser (irradiated with a light dose of 15 J/cm^2); G-Ce6 (treated with 8 μg/mL G-Ce6); and PDT (treated with 8 μg/mL G-Ce6, and then irradiated with a light dose of 1, 5, or 15 J/cm^2).
The cells were incubated with 8 μg/mL G-Ce6 for 24 h. After washing with fresh media, the cells were irradiated with 650-nm laser light (10 mW/cm^2; 1, 5, and 15 J/cm^2) emitted by a semiconductor laser, using an optical fiber with a microlens delivery attachment. Apoptosis was assessed 4 h after laser irradiation using the Muse Annexin V and Dead Cell Assay kit (EMD Millipore Co., Billerica, MA, USA), according to the manufacturer’s protocols. Annexin V was used to detect phosphatidylserine on the external membrane of apoptotic cells.
Single-cell suspensions were then loaded onto the Muse Cell Analyzer (EMD Millipore Co.).

CCC1=C(C)c2cc3[nH]c(cc4nc(c(CC(=O)OC)c5[nH]c(cc1n2)c(C)c5C(=O)OC)[C@@H](CCC(=O)OC)[C@@H]4C)c(C)c3C(C)OCCCS[C@@H]1O[C@H](CO)[C@@H](O)[C@H](O)[C@H]1O (stereo partly drawn) [G-Ce6, Methyl (7S,8S)-18-ethyl-5-(2-methoxy-2-oxoethyl)-7-(3-methoxy-3-oxopropyl)-2,8,12,17-tetramethyl-13-(1-(3-(((2S,3R,4S,5S,6R)-3,4,5-trihydroxy-6-(hydroxymethyl)tetrahydro-2H-pyran-2-yl)thio)propoxy)ethyl)-7H,8H-porphyrin-3-carboxylate]
Intratumoral localization of fluorescence ([1]; 5 min after administration): within the tumor blood vessel | Intratumoral localization of fluorescence ([1]; 3 h post administration): in both tumor interstitial tissue and tumor cells | Apoptotic rates compared with control group [2]: significantly higher

Source: publication PMC6562844, “A Basic Study of Photodynamic Therapy with Glucose-Conjugated Chlorin e6 Using Mammary Carcinoma Xenografts” (Cancers, 2019)
